Values of other authors in patent US20120328543A1, “USE OF A CATIONIC, ADVANTAGEOUSLY AMPHOTERIC, SURFACTANT FOR THE PREPARATION OF AN ANTIFUNGAL SOLUTION THAT CAN BE APPLIED TO THE NAIL” (priority 2009, published 2012).

What was measured:
[1] = not given; remark: listed apart in the source

## CN(C/C=C/C#CC(C)(C)C)Cc1cccc2ccccc12.Cl [Terbinafine HCl, terbinafine hydrochloride]
other
  solubility in water: 5.32 µg/mL
[1]
  pKa: 7.10
